# Measured values published in ChEMBL document CHEMBL4152360 (Bioorg Med Chem, 2018).
# Activity calls are given as the source filed them. No cut-off for these calls is given here.
# How the values were obtained:
# [1] = molecular target: High affinity nerve growth factor receptor (Homo sapiens) (UniProt P04629); experiment: Inhibition of human TRKA assessed as enzyme residual activity at 100 nM by radiometric filter binding assay relative to control
# [2] = molecular target: T1, Casein kinase II subunit alpha (Homo sapiens, UniProt P68400); experiment: Displacement of ARC-1504/ARC-1513-5O from CK2alpha (unknown origin) (1 to 335 residues) assessed as photoluminescence lifetime using non-deoxygenated solution after 15 to 60 mins by luminescence assay
# Target sequence in this assay (P68400 whole entry, looked up, the tested form may be a part): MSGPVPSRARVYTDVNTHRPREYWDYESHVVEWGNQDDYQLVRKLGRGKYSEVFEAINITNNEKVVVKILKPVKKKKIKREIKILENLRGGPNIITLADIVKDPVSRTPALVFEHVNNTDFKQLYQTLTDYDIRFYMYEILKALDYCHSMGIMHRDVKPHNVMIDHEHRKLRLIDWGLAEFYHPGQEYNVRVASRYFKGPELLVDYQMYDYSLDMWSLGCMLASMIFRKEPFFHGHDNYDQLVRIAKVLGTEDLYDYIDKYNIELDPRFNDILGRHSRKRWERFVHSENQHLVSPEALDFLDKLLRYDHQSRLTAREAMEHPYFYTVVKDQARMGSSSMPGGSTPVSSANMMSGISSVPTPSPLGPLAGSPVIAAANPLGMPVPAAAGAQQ
# [3] = molecular target: Aurora kinase B (Homo sapiens) (UniProt Q96GD4); experiment: Inhibition of human AurB assessed as enzyme residual activity at 100 nM by radiometric filter binding assay relative to control
# [4] = molecular target: Casein kinase I isoform delta (Homo sapiens) (UniProt P48730); experiment: Inhibition of human CK1delta assessed as enzyme residual activity at 100 nM by radiometric filter binding assay relative to control
# [5] = molecular target: Eukaryotic elongation factor 2 kinase (Homo sapiens) (UniProt O00418); experiment: Inhibition of human EF2K assessed as enzyme residual activity at 100 nM by radiometric filter binding assay relative to control
# [6] = molecular target: MAP/microtubule affinity-regulating kinase 3 (Homo sapiens) (UniProt P27448); experiment: Inhibition of human MARK3 assessed as enzyme residual activity at 100 nM by radiometric filter binding assay relative to control
# [7] = molecular target: Homeodomain-interacting protein kinase 2 (Homo sapiens) (UniProt Q9H2X6); experiment: Inhibition of human HIPK2 assessed as enzyme residual activity at 100 nM by radiometric filter binding assay relative to control
# [8] = molecular target: Calcium/calmodulin-dependent protein kinase kinase 2 (Homo sapiens) (UniProt Q96RR4); experiment: Inhibition of human CaMKKbeta assessed as enzyme residual activity at 100 nM by radiometric filter binding assay relative to control
# [9] = molecular target: Vascular endothelial growth factor receptor 1 (Homo sapiens) (UniProt P17948); experiment: Inhibition of human VEGFR1 assessed as enzyme residual activity at 100 nM by radiometric filter binding assay relative to control
# [10] = molecular target: T1, Casein kinase II subunit alpha; experiment: Displacement of ARC-1504/ARC-1513-5O from CK2alpha (unknown origin) (1 to 335 residues) after 15 to 60 mins by luminescence assay
# Target sequence in this assay (P68400 whole entry, the tested form may be a part): as the sequence (P68400 whole entry, looked up, the tested form may be a part) above
# [11] = molecular target: T1, Casein kinase II subunit alpha; experiment: Displacement of 5-TAMRA-labeled ARC-1530 from CK2alpha (unknown origin) (1 to 335 residues) after 15 to 60 mins by luminescence assay
# Target sequence in this assay (P68400 whole entry, looked up, the tested form may be a part): as above
# [12] = molecular target: Myosin light chain kinase, smooth muscle (Homo sapiens) (UniProt Q15746); experiment: Inhibition of human SmMLCK assessed as enzyme residual activity at 100 nM by radiometric filter binding assay relative to control
# [13] = molecular target: Ribosomal protein S6 kinase alpha-5 (Homo sapiens) (UniProt O75582); experiment: Inhibition of human MSK1 assessed as enzyme residual activity at 100 nM by radiometric filter binding assay relative to control
# [14] = molecular target: Serine/threonine-protein kinase Chk2 (Homo sapiens) (UniProt O96017); experiment: Inhibition of human CHK2 assessed as enzyme residual activity at 100 nM by radiometric filter binding assay relative to control
# [15] = molecular target: Serine/threonine-protein kinase Sgk1 (Homo sapiens) (UniProt O00141); experiment: Inhibition of human SGK1 assessed as enzyme residual activity at 100 nM by radiometric filter binding assay relative to control
# [16] = molecular target: Serine/threonine-protein kinase 3 (Homo sapiens) (UniProt Q13188); experiment: Inhibition of human MST2 assessed as enzyme residual activity at 100 nM by radiometric filter binding assay relative to control
# [17] = molecular target: Receptor tyrosine-protein kinase erbB-4 (Homo sapiens) (UniProt Q15303); experiment: Inhibition of human HER4 assessed as enzyme residual activity at 100 nM by radiometric filter binding assay relative to control
# [18] = molecular target: Ribosomal protein S6 kinase beta-1 (Homo sapiens) (UniProt P23443); experiment: Inhibition of human S6K1 assessed as enzyme residual activity at 100 nM by radiometric filter binding assay relative to control
# [19] = molecular target: SRSF protein kinase 1 (Homo sapiens) (UniProt Q96SB4); experiment: Inhibition of human SRPK1 assessed as enzyme residual activity at 100 nM by radiometric filter binding assay relative to control
# [20] = molecular target: Serine/threonine-protein kinase STK11 (Homo sapiens) (UniProt Q15831); experiment: Inhibition of human LKB1 assessed as enzyme residual activity at 100 nM by radiometric filter binding assay relative to control
# [21] = molecular target: Ribosomal protein S6 kinase alpha-1 (Homo sapiens) (UniProt Q15418); experiment: Inhibition of human RSK1 assessed as enzyme residual activity at 100 nM by radiometric filter binding assay relative to control
# [22] = molecular target: Glycogen synthase kinase-3 beta (Homo sapiens) (UniProt P49841); experiment: Inhibition of human GSK3beta assessed as enzyme residual activity at 100 nM by radiometric filter binding assay relative to control
# [23] = molecular target: 3-phosphoinositide-dependent protein kinase 1 (Homo sapiens) (UniProt O15530); experiment: Inhibition of human PDK1 assessed as enzyme residual activity at 100 nM by radiometric filter binding assay relative to control
# [24] = molecular target: Mitogen-activated protein kinase kinase kinase 7 (Homo sapiens) (UniProt O43318); experiment: Inhibition of human TAK1 assessed as enzyme residual activity at 100 nM by radiometric filter binding assay relative to control
# [25] = molecular target: Serine/threonine-protein kinase Nek6 (Homo sapiens) (UniProt Q9HC98); experiment: Inhibition of human NEK6 assessed as enzyme residual activity at 100 nM by radiometric filter binding assay relative to control
# [26] = molecular target: Serine/threonine-protein kinase PAK 4 (Homo sapiens) (UniProt O96013); experiment: Inhibition of human PAK4 assessed as enzyme residual activity at 100 nM by radiometric filter binding assay relative to control
# [27] = molecular target: Insulin-like growth factor 1 receptor (Homo sapiens) (UniProt P08069); experiment: Inhibition of human IGF1R assessed as enzyme residual activity at 100 nM by radiometric filter binding assay relative to control
# [28] = molecular target: Tyrosine-protein kinase SYK (Homo sapiens) (UniProt P43405); experiment: Inhibition of human SYK assessed as enzyme residual activity at 100 nM by radiometric filter binding assay relative to control
# [29] = molecular target: Mitogen-activated protein kinase 14 (Homo sapiens) (UniProt Q16539); experiment: Inhibition of human p38alpha MAPK assessed as enzyme residual activity at 100 nM by radiometric filter binding assay relative to control
# [30] = molecular target: Serine/threonine-protein kinase D1 (Homo sapiens) (UniProt Q15139); experiment: Inhibition of human PKD1 assessed as enzyme residual activity at 100 nM by radiometric filter binding assay relative to control
# [31] = molecular target: Dual specificity protein kinase TTK (Homo sapiens) (UniProt P33981); experiment: Inhibition of human TTK assessed as enzyme residual activity at 100 nM by radiometric filter binding assay relative to control
# [32] = molecular target: Proto-oncogene tyrosine-protein kinase Src (Homo sapiens) (UniProt P12931); experiment: Inhibition of human SRC assessed as enzyme residual activity at 100 nM by radiometric filter binding assay relative to control
# Serine/threonine-protein kinase PAK 4 (Homo sapiens), sequence (O96013 whole entry, looked up): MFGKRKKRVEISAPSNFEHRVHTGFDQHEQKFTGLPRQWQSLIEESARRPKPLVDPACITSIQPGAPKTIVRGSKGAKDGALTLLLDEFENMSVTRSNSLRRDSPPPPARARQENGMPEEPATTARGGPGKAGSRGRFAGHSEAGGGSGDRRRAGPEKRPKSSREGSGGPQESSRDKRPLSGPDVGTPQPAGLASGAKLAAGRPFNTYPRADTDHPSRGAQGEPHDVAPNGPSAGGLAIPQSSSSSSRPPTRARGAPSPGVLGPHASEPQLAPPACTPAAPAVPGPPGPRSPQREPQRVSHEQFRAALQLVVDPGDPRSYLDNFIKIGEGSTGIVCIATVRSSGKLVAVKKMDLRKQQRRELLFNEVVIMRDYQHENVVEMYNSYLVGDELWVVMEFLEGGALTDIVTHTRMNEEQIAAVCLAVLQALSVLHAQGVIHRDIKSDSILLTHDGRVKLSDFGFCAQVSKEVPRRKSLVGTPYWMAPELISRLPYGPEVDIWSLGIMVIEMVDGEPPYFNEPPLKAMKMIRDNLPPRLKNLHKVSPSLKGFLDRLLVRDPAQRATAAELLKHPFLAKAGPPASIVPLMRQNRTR
# Myosin light chain kinase, smooth muscle (Homo sapiens), sequence (Q15746 whole entry): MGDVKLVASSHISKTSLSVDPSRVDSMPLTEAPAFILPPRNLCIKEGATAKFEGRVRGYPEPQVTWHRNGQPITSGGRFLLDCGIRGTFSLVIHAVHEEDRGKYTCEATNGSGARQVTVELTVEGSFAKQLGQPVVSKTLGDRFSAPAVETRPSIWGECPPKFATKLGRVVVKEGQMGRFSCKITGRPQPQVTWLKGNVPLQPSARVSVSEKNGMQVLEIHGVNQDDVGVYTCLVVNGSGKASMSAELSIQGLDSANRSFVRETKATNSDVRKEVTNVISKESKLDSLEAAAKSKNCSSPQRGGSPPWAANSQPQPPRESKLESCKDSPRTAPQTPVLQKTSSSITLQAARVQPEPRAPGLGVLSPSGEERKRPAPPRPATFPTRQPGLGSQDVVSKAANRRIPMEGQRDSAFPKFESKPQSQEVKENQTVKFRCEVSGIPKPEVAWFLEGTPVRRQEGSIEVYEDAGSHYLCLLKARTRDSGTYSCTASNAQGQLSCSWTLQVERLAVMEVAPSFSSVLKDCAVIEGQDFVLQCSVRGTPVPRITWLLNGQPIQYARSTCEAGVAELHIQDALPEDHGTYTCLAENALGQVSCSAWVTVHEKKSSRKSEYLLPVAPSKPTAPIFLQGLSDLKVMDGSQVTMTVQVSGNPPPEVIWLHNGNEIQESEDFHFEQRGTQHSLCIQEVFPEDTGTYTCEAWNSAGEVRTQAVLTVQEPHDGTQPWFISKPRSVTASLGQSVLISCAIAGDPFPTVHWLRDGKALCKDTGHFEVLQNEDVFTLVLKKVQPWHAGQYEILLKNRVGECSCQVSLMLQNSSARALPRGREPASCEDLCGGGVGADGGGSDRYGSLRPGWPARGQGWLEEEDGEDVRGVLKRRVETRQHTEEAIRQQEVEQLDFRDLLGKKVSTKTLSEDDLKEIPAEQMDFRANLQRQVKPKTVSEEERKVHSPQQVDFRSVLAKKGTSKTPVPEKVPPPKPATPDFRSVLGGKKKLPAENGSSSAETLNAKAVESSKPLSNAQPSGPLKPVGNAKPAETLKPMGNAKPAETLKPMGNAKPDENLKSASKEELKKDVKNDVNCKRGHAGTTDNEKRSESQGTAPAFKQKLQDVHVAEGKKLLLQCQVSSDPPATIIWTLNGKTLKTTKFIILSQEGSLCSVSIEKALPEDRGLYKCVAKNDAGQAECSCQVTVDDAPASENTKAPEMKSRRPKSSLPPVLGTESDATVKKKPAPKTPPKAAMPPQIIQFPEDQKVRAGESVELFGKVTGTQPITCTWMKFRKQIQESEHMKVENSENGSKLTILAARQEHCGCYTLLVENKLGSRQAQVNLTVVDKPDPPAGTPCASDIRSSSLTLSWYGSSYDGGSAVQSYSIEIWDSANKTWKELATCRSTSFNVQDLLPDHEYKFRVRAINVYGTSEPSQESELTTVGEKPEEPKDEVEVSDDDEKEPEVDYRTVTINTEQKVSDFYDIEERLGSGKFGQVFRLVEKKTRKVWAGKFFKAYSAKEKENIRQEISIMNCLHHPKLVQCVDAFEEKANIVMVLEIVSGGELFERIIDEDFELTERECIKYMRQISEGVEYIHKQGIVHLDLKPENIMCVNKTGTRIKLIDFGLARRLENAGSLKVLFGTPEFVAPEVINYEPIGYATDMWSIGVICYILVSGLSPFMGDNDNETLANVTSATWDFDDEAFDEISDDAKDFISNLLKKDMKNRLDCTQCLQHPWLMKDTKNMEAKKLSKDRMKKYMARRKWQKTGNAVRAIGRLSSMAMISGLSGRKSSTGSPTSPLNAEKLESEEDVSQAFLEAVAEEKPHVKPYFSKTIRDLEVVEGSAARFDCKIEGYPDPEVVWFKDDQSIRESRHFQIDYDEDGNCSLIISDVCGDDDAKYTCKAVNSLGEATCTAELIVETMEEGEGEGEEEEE
# Mitogen-activated protein kinase kinase kinase 7 (Homo sapiens), sequence (O43318 whole entry): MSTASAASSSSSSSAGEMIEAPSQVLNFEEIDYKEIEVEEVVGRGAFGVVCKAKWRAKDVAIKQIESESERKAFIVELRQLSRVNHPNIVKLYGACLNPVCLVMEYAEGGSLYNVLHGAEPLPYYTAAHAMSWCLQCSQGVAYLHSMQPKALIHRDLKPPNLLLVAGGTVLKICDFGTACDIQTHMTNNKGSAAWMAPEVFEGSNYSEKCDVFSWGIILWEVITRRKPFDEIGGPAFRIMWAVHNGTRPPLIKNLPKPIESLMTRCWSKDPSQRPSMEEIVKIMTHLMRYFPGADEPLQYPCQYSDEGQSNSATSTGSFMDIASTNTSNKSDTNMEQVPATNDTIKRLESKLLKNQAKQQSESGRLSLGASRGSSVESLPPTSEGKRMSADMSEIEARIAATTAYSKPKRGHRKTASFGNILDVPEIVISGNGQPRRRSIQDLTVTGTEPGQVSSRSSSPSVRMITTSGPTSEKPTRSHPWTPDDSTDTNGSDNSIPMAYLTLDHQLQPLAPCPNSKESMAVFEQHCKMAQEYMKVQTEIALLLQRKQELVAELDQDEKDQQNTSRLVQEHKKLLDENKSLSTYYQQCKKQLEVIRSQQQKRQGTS
# High affinity nerve growth factor receptor (Homo sapiens), sequence (P04629 33-796 limits assumed): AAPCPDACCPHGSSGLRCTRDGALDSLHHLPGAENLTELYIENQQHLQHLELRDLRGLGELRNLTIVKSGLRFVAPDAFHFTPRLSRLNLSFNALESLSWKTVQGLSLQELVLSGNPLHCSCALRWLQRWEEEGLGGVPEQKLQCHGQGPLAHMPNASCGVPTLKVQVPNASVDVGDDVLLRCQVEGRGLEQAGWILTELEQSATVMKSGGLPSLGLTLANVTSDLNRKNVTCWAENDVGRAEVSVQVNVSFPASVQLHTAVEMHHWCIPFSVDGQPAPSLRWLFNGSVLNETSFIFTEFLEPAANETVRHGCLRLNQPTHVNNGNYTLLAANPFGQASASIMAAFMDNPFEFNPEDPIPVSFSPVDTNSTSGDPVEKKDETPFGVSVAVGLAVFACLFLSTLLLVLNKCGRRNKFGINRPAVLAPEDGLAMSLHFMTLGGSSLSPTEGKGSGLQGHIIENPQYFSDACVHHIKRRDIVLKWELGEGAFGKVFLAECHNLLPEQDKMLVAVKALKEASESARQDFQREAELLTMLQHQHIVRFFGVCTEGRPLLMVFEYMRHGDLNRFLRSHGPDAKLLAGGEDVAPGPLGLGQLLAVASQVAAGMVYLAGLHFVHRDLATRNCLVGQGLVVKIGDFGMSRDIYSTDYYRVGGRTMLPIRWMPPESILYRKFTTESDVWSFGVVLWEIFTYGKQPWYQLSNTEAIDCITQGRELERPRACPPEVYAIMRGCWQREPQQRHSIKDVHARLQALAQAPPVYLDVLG
# SRSF protein kinase 1 (Homo sapiens), sequence (Q96SB4 whole entry): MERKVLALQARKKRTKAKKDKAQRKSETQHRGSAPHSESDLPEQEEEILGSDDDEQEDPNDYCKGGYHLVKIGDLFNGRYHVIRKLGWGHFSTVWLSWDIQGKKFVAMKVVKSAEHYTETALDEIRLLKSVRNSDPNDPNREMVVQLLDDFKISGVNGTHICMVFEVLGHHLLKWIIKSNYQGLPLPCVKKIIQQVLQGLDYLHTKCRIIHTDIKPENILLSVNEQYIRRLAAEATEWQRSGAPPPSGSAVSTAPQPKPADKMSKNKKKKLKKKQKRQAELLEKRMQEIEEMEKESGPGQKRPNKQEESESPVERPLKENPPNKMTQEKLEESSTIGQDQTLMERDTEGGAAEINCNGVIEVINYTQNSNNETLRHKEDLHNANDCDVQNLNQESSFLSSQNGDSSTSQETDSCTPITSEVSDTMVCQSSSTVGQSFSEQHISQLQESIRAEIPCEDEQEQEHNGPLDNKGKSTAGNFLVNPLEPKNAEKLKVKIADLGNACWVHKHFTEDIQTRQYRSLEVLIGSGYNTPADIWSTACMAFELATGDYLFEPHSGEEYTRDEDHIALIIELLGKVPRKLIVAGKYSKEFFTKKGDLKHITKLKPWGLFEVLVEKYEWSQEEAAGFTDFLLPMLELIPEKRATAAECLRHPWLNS
structure (smiles),measurement,setting,value
NCCCC[C@@H](NC(=O)[C@@H](CC(=O)O)NC(=O)[C@@H](CC(=O)O)NC(=O)[C@@H](CC(=O)O)NC(=O)[C@@H](CC(=O)O)NC(=O)[C@@H](CC(=O)O)NC(=O)[C@@H](CC(=O)O)NC(=O)CCCCCNC(=O)CCC(=O)Nc1ncc(-c2ccc(C(=O)O)cc2)s1)C(=O)O,Activity,[1],88%
same,Time,[2],82 microsec
same,Activity,[3],129%
same,Activity,[4],107%
same,Activity,[5],106%
same,Activity,[6],99%
same,Activity,[7],23%
same,Activity,[8],120%
same,Activity,[9],87%
same,Kd,[10],0.58 nM
same,Activity,[11],Active
same,Activity,[12],68%
same,Activity,[13],115%
same,Activity,[14],96%
same,Activity,[15],97%
same,Activity,[16],101%
same,Activity,[17],113%
same,Activity,[18],104%
same,Activity,[19],69%
same,Activity,[20],107%
same,Activity,[21],101%
same,Activity,[22],19%
same,Activity,[23],111%
same,Activity,[24],62%
same,Activity,[25],103%
same,Activity,[26],101%
same,Activity,[27],143%
same,Activity,[28],122%
same,Activity,[29],102%
same,Activity,[30],117%
same,Activity,[31],85%
same,Activity,[32],103%
